The text below walks through data of patent publication US5892041A, “Fused indolecarboxamides: dopamine receptor subtype specific ligands” (Neurogen Corporation, priority 1996, dated 1999).

Where a name gives a salt, the structure may show the parent alone.

The target of experiment [1] is T1, D3 receptors (Chlorocebus aethiops, UniProt P52703).
T1 construct: expressed in transfected cells; host or cells: COS cells
As to the kind of experiment: D3 receptor binding ([3H]YM 09151-2 displacement, COS cell pellets with recombinant receptor). The note with it: 0.5 nM 3H-YM 09151-2; recombinant receptor in COS cells; nonspecific with 1 mM spiperone; text also says rat striatal homogenates. Further details: species or system African Green monkey. As to the method:
(§1) Pellets of COS cells containing recombinantly produced D2 or D3 receptors from African Green monkey were used for the assays. The sample is homogenized in 100 volumes (w/vol) of 0.05M Tris HCl buffer at 4° C. and pH 7.4. The sample is then centrifuged at 30,000×g and resuspended and rehomogenized. The sample is then centrifuged as described and the final tissue sample is frozen until use. The tissue is resuspended 1:20 (wt/vol) in 0.05M Tris HCl buffer containing 100 mM NaCl.
(§2) Incubations are carried out at 48° C. and contain 0.4 ml of tissue sample, 0.5 nM ^3 H-YM 09151-2 and the compound of interest in a total incubation of 1.0 ml. Nonspecific binding is defined as that binding found in the presence of […] spiperone; without further additions, nonspecific binding is less than 20% of total binding. The binding characteristics of representative compounds of the invention for D2 and D3 receptor subtypes are shown in Table 2 for rat striatal homogenates.

For experiment [2], the target named is T2, D2 receptors (Chlorocebus aethiops, UniProt P52702).
T2 construct: 3H-YM 09151-2 displacement
As to the kind of experiment: D2 receptor binding ([3H]YM 09151-2 displacement, COS cell pellets with recombinant receptor). Further details: species or system African Green monkey. The note with it: 0.5 nM 3H-YM 09151-2; recombinant receptor in COS cells; nonspecific with 1 mM spiperone; text also says rat striatal homogenates. The protocol: as §1, §2

T2 sequence (P52702 whole entry): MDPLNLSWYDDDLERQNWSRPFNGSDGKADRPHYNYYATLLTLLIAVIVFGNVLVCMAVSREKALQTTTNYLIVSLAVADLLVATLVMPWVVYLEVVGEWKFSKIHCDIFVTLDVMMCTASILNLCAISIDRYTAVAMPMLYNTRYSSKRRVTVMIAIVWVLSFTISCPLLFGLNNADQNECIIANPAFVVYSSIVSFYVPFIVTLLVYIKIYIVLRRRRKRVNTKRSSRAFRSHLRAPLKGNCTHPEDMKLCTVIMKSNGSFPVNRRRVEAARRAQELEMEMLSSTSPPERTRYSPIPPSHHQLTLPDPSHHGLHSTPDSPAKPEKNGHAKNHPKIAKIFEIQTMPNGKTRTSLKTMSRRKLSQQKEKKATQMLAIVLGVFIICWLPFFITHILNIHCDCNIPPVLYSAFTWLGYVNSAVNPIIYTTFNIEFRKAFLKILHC
T1 sequence (P52703 whole entry): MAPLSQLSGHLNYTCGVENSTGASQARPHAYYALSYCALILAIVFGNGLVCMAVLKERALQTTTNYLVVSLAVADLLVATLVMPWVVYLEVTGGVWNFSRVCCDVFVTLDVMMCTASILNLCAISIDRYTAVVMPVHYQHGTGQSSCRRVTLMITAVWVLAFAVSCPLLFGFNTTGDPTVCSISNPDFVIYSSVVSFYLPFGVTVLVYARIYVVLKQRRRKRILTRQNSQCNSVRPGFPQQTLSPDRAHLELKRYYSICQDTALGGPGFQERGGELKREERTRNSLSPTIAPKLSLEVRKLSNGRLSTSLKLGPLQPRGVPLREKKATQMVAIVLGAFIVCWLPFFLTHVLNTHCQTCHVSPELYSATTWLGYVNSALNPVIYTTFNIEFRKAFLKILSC

Take `O=C(NCCCCN1CCN(c2cccc(Cl)c2Cl)CC1)c1ccc2[nH]c3c(c2c1)CCCC3` [Compound 1, N-(1-{4-[4-(2,3-dichlorophenyl)piperazine-1-yl]}butyl)-1,2,3 4-tetrahydrocarbazole-6-carboxamide hydrochloride]: the values for the Ki in experiment [1] and in experiment [2] were 0.5 nM and 250 nM, respectively.

Turning to `Cn1c2ccccc2c2cc(C(=O)NCCCCN3CCN(c4cccc(Cl)c4Cl)CC3)ccc21` [Compound 3, N-(1-{4-[4-(2,3-dichlorophenyl)piperazine-1-yl]}butyl)-9-methylcarbazole-3-carboxamide hydrochloride], the Ki (in general, a measure of affinity in units of concentration, obtained from inhibition or displacement) in experiment [1] is 2 nM; in experiment [2], 540 nM.

For `O=C(NCCCCN1CCN(c2cccc(Cl)c2Cl)CC1)c1ccc2c(c1)[nH]c1ccccc12` [Compound 4, N-(1-{4-[4-(2,3-dichlorophenyl)piperazine-1-yl]}butyl)-9H-carbazole-2-carboxamide hydrochloride], the Ki in experiment [1] came to 1 nM; in experiment [2], 750 nM.
